For one assay, the target named is MRCKβ (Homo sapiens (Human), UniProt Q9Y5S2). Put plainly: MRCKβ kinase assay (IMAP fluorescence polarization). The class given is biochemical. The settings on record: 1 μM ATP; read-out: MRCK-B Average Ki. From the text: MRCKα, MRCKβ, ROCK1 and ROCK2 Kinase Assays
A general note: Polarisation of emitted light reports the rotation of a fluorescent probe.

Another assay concerns the target ROCK1 (Homo sapiens (Human), UniProt Q13464). To be noted: read-out: ROCK1 Average Ki; 1 μM ATP.

ROCK1, sequence (Q13464 2-1354 limits assumed): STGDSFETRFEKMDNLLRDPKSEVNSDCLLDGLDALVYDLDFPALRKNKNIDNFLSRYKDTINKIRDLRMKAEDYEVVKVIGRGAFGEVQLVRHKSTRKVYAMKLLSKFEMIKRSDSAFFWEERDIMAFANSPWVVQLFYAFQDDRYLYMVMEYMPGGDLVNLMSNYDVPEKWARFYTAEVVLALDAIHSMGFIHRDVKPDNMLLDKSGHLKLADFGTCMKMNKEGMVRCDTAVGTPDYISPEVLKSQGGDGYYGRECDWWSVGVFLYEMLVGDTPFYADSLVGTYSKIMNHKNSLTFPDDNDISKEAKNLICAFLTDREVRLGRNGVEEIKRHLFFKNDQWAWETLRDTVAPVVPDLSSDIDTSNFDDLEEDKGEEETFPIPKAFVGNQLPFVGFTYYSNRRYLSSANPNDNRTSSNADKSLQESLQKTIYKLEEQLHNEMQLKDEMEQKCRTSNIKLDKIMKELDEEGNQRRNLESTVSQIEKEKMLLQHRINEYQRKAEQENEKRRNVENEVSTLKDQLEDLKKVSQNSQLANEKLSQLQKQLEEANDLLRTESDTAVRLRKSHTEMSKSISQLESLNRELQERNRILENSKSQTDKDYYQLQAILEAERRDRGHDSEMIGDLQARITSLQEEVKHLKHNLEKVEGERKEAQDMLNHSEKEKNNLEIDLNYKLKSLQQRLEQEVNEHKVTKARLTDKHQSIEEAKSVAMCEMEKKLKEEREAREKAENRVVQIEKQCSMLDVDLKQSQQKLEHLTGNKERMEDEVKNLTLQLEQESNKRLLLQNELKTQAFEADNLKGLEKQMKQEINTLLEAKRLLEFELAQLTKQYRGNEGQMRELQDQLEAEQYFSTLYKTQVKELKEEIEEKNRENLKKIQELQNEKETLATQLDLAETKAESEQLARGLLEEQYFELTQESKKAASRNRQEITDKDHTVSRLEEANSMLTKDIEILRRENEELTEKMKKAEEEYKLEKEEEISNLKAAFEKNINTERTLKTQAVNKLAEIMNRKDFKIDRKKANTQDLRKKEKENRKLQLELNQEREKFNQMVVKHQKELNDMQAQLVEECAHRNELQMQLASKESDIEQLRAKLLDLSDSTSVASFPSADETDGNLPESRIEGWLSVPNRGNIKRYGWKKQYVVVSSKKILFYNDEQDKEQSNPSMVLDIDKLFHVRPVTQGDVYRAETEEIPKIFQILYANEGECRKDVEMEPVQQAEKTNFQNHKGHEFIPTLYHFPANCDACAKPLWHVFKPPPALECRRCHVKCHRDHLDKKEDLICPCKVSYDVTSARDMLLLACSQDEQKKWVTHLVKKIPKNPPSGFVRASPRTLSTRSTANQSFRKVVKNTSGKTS

The term Ki denotes a dissociation constant, usually derived from enzyme kinetics or from competition with a known ligand. Turning to “7-(3-pyridazin-4-yl-1H-pyrrolo[2,3-b]pyridin-4-yl)-2,7-diazaspiro[4.5]decane [Example E163]”, the inhibition constant Ki on MRCKβ worked out at 2.4 nM; on ROCK1, 16.7 nM.

In the case of `NC1CN(c2ccnc3[nH]cc(-c4ccncn4)c23)CCC1F` (stereo not drawn) [Example E42, 4-fluoro-1-(3-pyrimidin-4-yl-1H-pyrrolo[2,3-b]pyridin-4-yl)piperidin-3-amine], the Ki at MRCKβ was determined as 0.323 nM; at ROCK1 it was 79.6 nM.

Consider `c1cc(-c2c[nH]c3nccc(N4CCCNCC4)c23)cnn1` [Example E43, 4-(1,4-diazepan-1-yl)-3-pyridazin-4-yl-1H-pyrrolo[2,3-b]pyridine], for which the Ki at MRCKβ worked out at 2.61 nM; on ROCK1, 59.5 nM.

As for `c1ncc(-c2c[nH]c3nccc(N4CCCNCC4)c23)cn1` [Example E44, 4-(1,4-diazepan-1-yl)-3-pyrimidin-5-yl-1H-pyrrolo[2,3-b]pyridine], the figures for the Ki at MRCKβ and at ROCK1 were 4.5 nM and 461 nM, respectively.

Regarding `N#Cc1c[nH]c2nccc(N3CCCCC3Cc3ccccc3)c12` (stereo not drawn) [Example E106, 4-(2-benzyl-1-piperidyl)-1H-pyrrolo[2,3-b]pyridine-3-carbonitrile], at MRCKβ, the inhibitory constant (Ki) was found to be 805 nM.

As to `c1ncc(-c2c[nH]c3nccc(N4CC[C@]5(CCCN5)C4)c23)cn1` [Example E123, 4-[(5R)-1,7-diazaspiro[4.4]nonan-7-yl]-3-pyrimidin-5-yl-1H-pyrrolo[2,3-b]pyridine], the Ki at MRCKβ amounted to 9.88 nM; on ROCK1, 100000 nM.

In the case of `c1ncc(-c2c[nH]c3nccc(N4CC[C@@]5(CCCN5)C4)c23)cn1` [Example E124, 4-[(5S)-1,7-diazaspiro[4.4]nonan-7-yl]-3-pyrimidin-5-yl-1H-pyrrolo[2,3-b]pyridine], the Ki at MRCKβ was 0.947 nM; at ROCK1, 76.9 nM.

Turning to `c1ncc(-c2c[nH]c3nccc(N4CC[C@]5(CCCCN5)C4)c23)cn1` [Example E125, (5R)-2-(3-pyrimidin-5-yl-1H-pyrrolo[2,3-b]pyridin-4-yl)-2,6-diazaspiro[4.5]decane], the Ki at MRCKβ turned out to be 31.3 nM; at ROCK1, 424 nM.

Take `c1cc(-c2c[nH]c3nccc(N4CC[C@]5(CCCCN5)C4)c23)ncn1` [Example E127, (5R)-2-(3-pyrimidin-4-yl-1H-pyrrolo[2,3-b]pyridin-4-yl)-2,6-diazaspiro[4.5]decane]: the values for the Ki at MRCKβ and on ROCK1 were 11.6 nM and 175 nM, respectively.

As to `Cc1cnc(-c2c[nH]c3nccc(N4CC[C@]5(CCCCN5)C4)c23)s1` [Example E130, 2-[4-[(5R)-2,6-diazaspiro[4.5]decan-2-yl]-1H-pyrrolo[2,3-b]pyridin-3-yl]-5-methyl-thiazole], the inhibition constant Ki on MRCKβ was 7.23 nM; at ROCK1, 100000 nM.

As to `c1csc(-c2c[nH]c3nccc(N4CC[C@]5(CCCCN5)C4)c23)n1` [Example E132, 2-[4-[(5R)-2,6-diazaspiro[4.5]decan-2-yl]-1H-pyrrolo[2,3-b]pyridin-3-yl]thiazole], the figures for the Ki on MRCKβ and at ROCK1 were 4.11 nM and 100000 nM, respectively.

As to `c1csc(-c2c[nH]c3nccc(N4CC[C@]5(CCCN5)C4)c23)n1` [Example E135, 2-[4-[(5R)-1,7-diazaspiro[4.4]nonan-7-yl]-1H-pyrrolo[2,3-b]pyridin-3-yl]thiazole], the results for the Ki on MRCKβ and on ROCK1 were 10.3 nM and 100000 nM, respectively.

As to `c1ccc(-c2c[nH]c3nccc(N4CCC5(CCCN5)C4)c23)nc1` (stereo not drawn) [Example E137, 4-(1,7-diazaspiro[4.4]nonan-7-yl)-3-(2-pyridyl)-1H-pyrrolo[2,3-b]pyridine], the Ki on MRCKβ was 2.83 nM; on ROCK1, 100000 nM.

`c1ccc(-c2c[nH]c3nccc(N4CCCC5(CCCCN5)C4)c23)nc1` (stereo not drawn) [Example E138, 8-[3-(2-pyridyl)-1H-pyrrolo[2,3-b]pyridin-4-yl]-1,8-diazaspiro[5.5]undecane]: the Ki at MRCKβ turned out to be 0.0726 nM; at ROCK1, 319 nM.

In the case of `c1ccc(-c2c[nH]c3nccc(N4CCC[C@]5(CCCCN5)C4)c23)nc1` [Example E140, (6R)-8-[3-(2-pyridyl)-1H-pyrrolo[2,3-b]pyridin-4-yl]-1,8-diazaspiro[5.5]undecane], the values for the inhibition constant (Ki) on MRCKβ and on ROCK1 were 7.33 nM and 97.7 nM, respectively.

Regarding `c1ccc(-c2c[nH]c3nccc(N4CCC5(CCCCN5)C4)c23)nc1` (stereo not drawn) [Example E141, 2-[3-(2-pyridyl)-1H-pyrrolo[2,3-b]pyridin-4-yl]-2,6-diazaspiro[4.5]decane], the Ki at MRCKβ was 0.549 nM; on ROCK1, 109 nM.

Consider `Cc1cnc(-c2c[nH]c3nccc(N4CCCC5(CCCN5)C4)c23)s1` (stereo not drawn) [Example E143, 2-[4-(1,9-diazaspiro[4.5]decan-9-yl)-1H-pyrrolo[2,3-b]pyridin-3-yl]-5-methyl-thiazole], for which the Ki turned out to be 0.882 nM on MRCKβ and 100000 nM on ROCK1.

With `Cc1cnc(-c2c[nH]c3nccc(N4CCC5(CCCCN5)C4)c23)s1` (stereo not drawn) [Example E144, 2-[4-(2,6-diazaspiro[4.5]decan-2-yl)-1H-pyrrolo[2,3-b]pyridin-3-yl]-5-methyl-thiazole], the figures for the Ki at MRCKβ and at ROCK1 were 0.154 nM and 386 nM, respectively.

In the case of `Cc1cnc(-c2c[nH]c3nccc(N4CCCC5(CCCCN5)C4)c23)s1` (stereo not drawn) [Example E147, 2-[4-(1,8-diazaspiro[5.5]undecan-8-yl)-1H-pyrrolo[2,3-b]pyridin-3-yl]-5-methyl-thiazole], the Ki came out at 0.0924 nM on MRCKβ and 100000 nM at ROCK1.

Turning to `Cc1cnc(-c2c[nH]c3nccc(N4CCC[C@]5(CCCCN5)C4)c23)s1` [Example E148, 2-[4-[(6R)-1,8-diazaspiro[5.5]undecan-8-yl]-1H-pyrrolo[2,3-b]pyridin-3-yl]-5-methyl-thiazole], the results for the Ki on MRCKβ and at ROCK1 were 4.02 nM and 100000 nM, respectively.

`c1csc(-c2c[nH]c3nccc(N4CCCC5(CCCCN5)C4)c23)n1` (stereo not drawn) [Example E149, 2-[4-(1,8-diazaspiro[5.5]undecan-8-yl)-1H-pyrrolo[2,3-b]pyridin-3-yl]thiazole]: the Ki amounted to 0.0633 nM at MRCKβ and 304 nM at ROCK1.

Turning to `c1csc(-c2c[nH]c3nccc(N4CCC[C@]5(CCCCN5)C4)c23)n1` [Example E151, 2-[4-[(6R)-1,8-diazaspiro[5.5]undecan-8-yl]-1H-pyrrolo[2,3-b]pyridin-3-yl]thiazole], the figures for the Ki on MRCKβ and on ROCK1 were 3.21 nM and 114 nM, respectively.

Take `Cc1cnc(-c2c[nH]c3nccc(N4CCC5(CCN5)C4)c23)s1` (stereo not drawn) [Example E152, 2-[4-(1,7-diazaspiro[3.4]octan-7-yl)-1H-pyrrolo[2,3-b]pyridin-3-yl]-5-methyl-thiazole]: the Ki was 4.65 nM at MRCKβ and 100000 nM at ROCK1.

On to `Cc1cnc(-c2c[nH]c3nccc(N4CCCC5(CCN5)C4)c23)s1` (stereo not drawn) [Example E153, 2-[4-(1,8-diazaspiro[3.5]nonan-8-yl)-1H-pyrrolo[2,3-b]pyridin-3-yl]-5-methyl-thiazole], for which the figures for the Ki at MRCKβ and at ROCK1 were 9.36 nM and 100000 nM, respectively.

As for `c1csc(-c2c[nH]c3nccc(N4CCC5(CCCN5)C4)c23)n1` (stereo not drawn) [Example E154, 2-[4-(1,7-diazaspiro[4.4]nonan-7-yl)-1H-pyrrolo[2,3-b]pyridin-3-yl]thiazole], the Ki is 0.37 nM at MRCKβ and 239 nM at ROCK1.

As to `c1cc(-c2c[nH]c3nccc(N4CCCC5(CNC5)C4)c23)cnn1` [Example E156, 4-(2,6-diazaspiro[3.5]nonan-6-yl)-3-pyridazin-4-yl-1H-pyrrolo[2,3-b]pyridine], the inhibitory constant (Ki) on MRCKβ is 1.69 nM; at ROCK1, 57.4 nM.

As to `Cc1csc(-c2c[nH]c3nccc(N4CCCC5(CCCCN5)C4)c23)n1` (stereo not drawn) [Example E158, 2-[4-(1,8-diazaspiro[5.5]undecan-8-yl)-1H-pyrrolo[2,3-b]pyridin-3-yl]-4-methyl-thiazole], the Ki on MRCKβ was determined as 0.36 nM; on ROCK1, 100000 nM.

On to `Cc1nccc(-c2c[nH]c3nccc(N4CCCC5(CCCCN5)C4)c23)n1` (stereo not drawn) [Example E160, 8-[3-(2-methylpyrimidin-4-yl)-1H-pyrrolo[2,3-b]pyridin-4-yl]-1,8-diazaspiro[5.5]undecane], for which the results for the Ki on MRCKβ and on ROCK1 were 2.76 nM and 100000 nM, respectively.

For `c1cc(-c2c[nH]c3nccc(N4CCC5(CCCN5)C4)c23)cnn1` (stereo not drawn) [Example E161, 4-(1,7-diazaspiro[4.4]nonan-7-yl)-3-pyridazin-4-yl-1H-pyrrolo[2,3-b]pyridine], the values for the inhibition constant Ki on MRCKβ and at ROCK1 were 0.933 nM and 34.1 nM, respectively.

Turning to `c1cc(-c2c[nH]c3nccc(N4CCC5(CCCCN5)C4)c23)cnn1` (stereo not drawn) [Example E162, 2-(3-pyridazin-4-yl-1H-pyrrolo[2,3-b]pyridin-4-yl)-2,6-diazaspiro[4.5]decane], the figures for the Ki at MRCKβ and on ROCK1 were 0.219 nM and 16.9 nM, respectively.

On to `c1cc(-c2c[nH]c3nccc(N4CCC5(CCNC5)C4)c23)cnn1` (stereo not drawn) [Example E164, 4-(2,7-diazaspiro[4.4]nonan-2-yl)-3-pyridazin-4-yl-1H-pyrrolo[2,3-b]pyridine], for which the Ki on MRCKβ amounted to 1.12 nM; on ROCK1, 0.448 nM.

As to `N#Cc1c[nH]c2nccc(N3CCCC4(CCCCN4)C3)c12` (stereo not drawn) [Example E165, 4-(1,8-diazaspiro[5.5]undecan-8-yl)-1H-pyrrolo[2,3-b]pyridine-3-carbonitrile], the Ki amounted to 0.249 nM at MRCKβ and 174 nM on ROCK1.

Regarding `CN(C)C(=O)C1(N)CCN(c2ccnc3[nH]cc(-c4cncnc4)c23)CC1` [Example E198, 4-amino-N,N-dimethyl-1-(3-pyrimidin-5-yl-1H-pyrrolo[2,3-b]pyridin-4-yl)piperidine-4-carboxamide], the Ki at MRCKβ worked out at 42.9 nM.

As to `N#Cc1c[nH]c2nccc(N3CCC[C@H]3C(=O)N3CCOCC3)c12` [Example E202, 4-[(2S)-2-(morpholine-4-carbonyl)pyrrolidin-1-yl]-1H-pyrrolo[2,3-b]pyridine-3-carbonitrile], the Ki at MRCKβ worked out at 992 nM.

Regarding `N#Cc1c[nH]c2nccc(N3CCC[C@H]3C(=O)N3CCCCC3)c12` [Example E203, 4-[(2S)-2-(piperidine-1-carbonyl)pyrrolidin-1-yl]-1H-pyrrolo[2,3-b]pyridine-3-carbonitrile], the Ki on MRCKβ amounted to 804 nM.

The record behind these values is patent US11447505B1, “Pyrrolo[2,3-b]pyridine compounds and their use in the treatment of cancer” (priority 2017, dated 2022).
